PubChem BioAssay AID1963843 (Molecular Pharmacology Branch, DTP, NCI, 2024)

Test system: 616215-338-R-J1-PDC complex spheroid viability
Experiment: Anticancer human tumor 616215-338-R-J1-PDC patient-derived colon adenocarcinoma cell line growth inhibition [POLQ]
Settings: for IC50: curve of first compound; for viability, T/C: stronger effect = lower value
Summary of the method: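 Complex spheroid viability model combining PDC tumour cells with endothelial (HUVEC) and MSC stromal cells. Novobiocin, ART-558 or RP6685 were tested singly and in combination with standard and investigational anticancer drugs. Each was titrated in half-log steps from near clinical Cmax, or from 10 microM where Cmax was unknown.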

[1] = second compound 0.0316 µM, first compound 0.0316 µM
[2] = second compound 0.0316 µM, first compound 0.1 µM
[3] = second compound 0.0316 µM, first compound 0.316 µM
[4] = second compound 0.0316 µM, first compound 1 µM
[5] = second compound 0.0316 µM, first compound 3.16 µM
[6] = second compound 0.0316 µM, first compound 10 µM
[7] = second compound 0.1 µM, first compound 0.0316 µM
[8] = second compound 0.1 µM, first compound 0.1 µM
[9] = second compound 0.1 µM, first compound 0.316 µM
[10] = second compound 0.1 µM, first compound 1 µM
[11] = second compound 0.1 µM, first compound 3.16 µM
[12] = second compound 0.1 µM, first compound 10 µM
[13] = second compound 0.316 µM, first compound 0.0316 µM
[14] = second compound 0.316 µM, first compound 0.1 µM
[15] = second compound 0.316 µM, first compound 0.316 µM
[16] = second compound 0.316 µM, first compound 1 µM
[17] = second compound 0.316 µM, first compound 3.16 µM
[18] = second compound 0.316 µM, first compound 10 µM
[19] = second compound 1 µM, first compound 0.0316 µM
[20] = second compound 1 µM, first compound 0.1 µM
[21] = second compound 1 µM, first compound 0.316 µM
[22] = second compound 1 µM, first compound 1 µM
[23] = second compound 1 µM, first compound 3.16 µM
[24] = second compound 1 µM, first compound 10 µM
[25] = second compound 3.16 µM, first compound 0.0316 µM
[26] = second compound 3.16 µM, first compound 0.1 µM
[27] = second compound 3.16 µM, first compound 0.316 µM
[28] = second compound 3.16 µM, first compound 1 µM
[29] = second compound 3.16 µM, first compound 3.16 µM
[30] = second compound 3.16 µM, first compound 10 µM
[31] = second compound 10 µM, first compound 0.0316 µM
[32] = second compound 10 µM, first compound 0.1 µM
[33] = second compound 10 µM, first compound 0.316 µM
[34] = second compound 10 µM, first compound 1 µM
[35] = second compound 10 µM, first compound 3.16 µM
[36] = second compound 10 µM, first compound 10 µM
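Further: spheroids exposed to compounds for one week before readout.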
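Wherever viability, T/C is given: percent viability relative to DMSO vehicle wells taken as 100%.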

## C#Cc1c(F)ccc2cc(O)cc(-c3ncc4c(N5CC6CCC(C5)N6)nc(OCC56CCCN5CC(F)C6)nc4c3F)c12 (stereo unspecified) + Nc1ccc(C#CCN(C(=O)Cc2ncc(C(F)(F)F)cc2C(F)(F)F)c2ccc(F)cc2)nn1
Second compound 0.0316 µM
  IC50: 7.31 µM
Second compound 0.1 µM
  IC50: 4.11 µM
Second compound 0.316 µM
  IC50: 3.43 µM
Second compound 1 µM
  IC50: 6.65 µM
Second compound 3.16 µM
  IC50: 6.47 µM
Second compound 10 µM
  IC50: 2.49 µM
[1]
  viability, T/C: 105%
[2]
  viability, T/C: 96.2%
[3]
  viability, T/C: 98.5%
[4]
  viability, T/C: 88.6%
[5]
  viability, T/C: 62.5%
[6]
  viability, T/C: 45.3%
[7]
  viability, T/C: 97.1%
[8]
  viability, T/C: 95.9%
[9]
  viability, T/C: 90.4%
[10]
  viability, T/C: 75.3%
[11]
  viability, T/C: 56.9%
[12]
  viability, T/C: 29.2%
[13]
  viability, T/C: 111%
[14]
  viability, T/C: 112%
[15]
  viability, T/C: 75.2%
[16]
  viability, T/C: 63.3%
[17]
  viability, T/C: 58.6%
[18]
  viability, T/C: 39%
[19]
  viability, T/C: 103%
[20]
  viability, T/C: 96.2%
[21]
  viability, T/C: 91.3%
[22]
  viability, T/C: 81.9%
[23]
  viability, T/C: 53.7%
[24]
  viability, T/C: 47.9%
[25]
  viability, T/C: 84.7%
[26]
  viability, T/C: 89.2%
[27]
  viability, T/C: 99.5%
[28]
  viability, T/C: 68.8%
[29]
  viability, T/C: 68.1%
[30]
  viability, T/C: 40.7%
[31]
  viability, T/C: 92.9%
[32]
  viability, T/C: 86.2%
[33]
  viability, T/C: 74.6%
[34]
  viability, T/C: 57.1%
[35]
  viability, T/C: 50.6%
[36]
  viability, T/C: 33.7%

## CCc1cc2c(N3CCc4c(cc(Cn5ccnc5)cc4-c4cn(C)nc4C(F)(F)F)C3=O)cc(C)nc2c(OC)n1 + Nc1ccc(C#CCN(C(=O)Cc2ncc(C(F)(F)F)cc2C(F)(F)F)c2ccc(F)cc2)nn1
Second compound 0.0316 µM
  IC50: 2.53 µM
Second compound 0.1 µM
  IC50: 2.96 µM
Second compound 0.316 µM
  IC50: 2.46 µM
Second compound 1 µM
  IC50: 2.41 µM
Second compound 3.16 µM
  IC50: 2.62 µM
Second compound 10 µM
  IC50: 1.42 µM
[1]
  viability, T/C: 106%
[2]
  viability, T/C: 108%
[3]
  viability, T/C: 80.2%
[4]
  viability, T/C: 62%
[5]
  viability, T/C: 51%
[6]
  viability, T/C: 38.5%
[7]
  viability, T/C: 123%
[8]
  viability, T/C: 101%
[9]
  viability, T/C: 68.7%
[10]
  viability, T/C: 60.9%
[11]
  viability, T/C: 54.3%
[12]
  viability, T/C: 40%
[13]
  viability, T/C: 105%
[14]
  viability, T/C: 111%
[15]
  viability, T/C: 75.8%
[16]
  viability, T/C: 61.5%
[17]
  viability, T/C: 51.5%
[18]
  viability, T/C: 40.1%
[19]
  viability, T/C: 115%
[20]
  viability, T/C: 108%
[21]
  viability, T/C: 91.5%
[22]
  viability, T/C: 57%
[23]
  viability, T/C: 51.8%
[24]
  viability, T/C: 41.9%
[25]
  viability, T/C: 112%
[26]
  viability, T/C: 111%
[27]
  viability, T/C: 78.2%
[28]
  viability, T/C: 63.6%
[29]
  viability, T/C: 51.1%
[30]
  viability, T/C: 38.4%
[31]
  viability, T/C: 99.4%
[32]
  viability, T/C: 98.2%
[33]
  viability, T/C: 74.9%
[34]
  viability, T/C: 53.3%
[35]
  viability, T/C: 45.8%
[36]
  viability, T/C: 41.4%

## COc1cc2cc(C(=O)CCC(=O)O)sc2cc1OC + Nc1ccc(C#CCN(C(=O)Cc2ncc(C(F)(F)F)cc2C(F)(F)F)c2ccc(F)cc2)nn1
Second compound 0.0316 µM
  IC50: > 10 µM
Second compound 0.1 µM
  IC50: > 10 µM
Second compound 0.316 µM
  IC50: > 10 µM
Second compound 1 µM
  IC50: > 10 µM
Second compound 3.16 µM
  IC50: > 10 µM
Second compound 10 µM
  IC50: > 10 µM
[1]
  viability, T/C: 109%
[2]
  viability, T/C: 105%
[3]
  viability, T/C: 110%
[4]
  viability, T/C: 108%
[5]
  viability, T/C: 109%
[6]
  viability, T/C: 102%
[7]
  viability, T/C: 108%
[8]
  viability, T/C: 106%
[9]
  viability, T/C: 117%
[10]
  viability, T/C: 104%
[11]
  viability, T/C: 119%
[12]
  viability, T/C: 108%
[13]
  viability, T/C: 112%
[14]
  viability, T/C: 108%
[15]
  viability, T/C: 105%
[16]
  viability, T/C: 108%
[17]
  viability, T/C: 113%
[18]
  viability, T/C: 99.9%
[19]
  viability, T/C: 110%
[20]
  viability, T/C: 102%
[21]
  viability, T/C: 101%
[22]
  viability, T/C: 113%
[23]
  viability, T/C: 115%
[24]
  viability, T/C: 102%
[25]
  viability, T/C: 108%
[26]
  viability, T/C: 101%
[27]
  viability, T/C: 108%
[28]
  viability, T/C: 103%
[29]
  viability, T/C: 107%
[30]
  viability, T/C: 101%
[31]
  viability, T/C: 95.3%
[32]
  viability, T/C: 91.1%
[33]
  viability, T/C: 86.8%
[34]
  viability, T/C: 97.2%
[35]
  viability, T/C: 89.3%
[36]
  viability, T/C: 79.2%
